# Patent US10285979B2, “Breast cancer therapeutic agent containing 5′-hydroxy-5-nitro-indirubin-3′-oxime as active ingredient” (ANYGEN CO., LTD., priority 2016, dated 2019)
# Where two headings read alike, the source gives them in different places.
# Legend:
# [1] = system: BT-549; conditions: 10 μM; breast cancer cell line BT-549
# From the text: (§1) If the growth percent is 0%, it means that no further growth of cancer cells occurs, which is an ideal case.
# [2] = system: CCRE-CEM; conditions: 10 μM; leukemia cell line CCRE-CEM
# From the text: as §1
# [3] = system: HOP-62; conditions: 10 μM; non-small cell lung cancer cell line HOP-62
# From the text: as §1
# [4] = system: HOP-92; conditions: 10 μM; non-small cell lung cancer cell line HOP-92
# From the text: as §1
# [5] = system: HT29; conditions: 10 μM; colorectal cancer cell line HT29
# From the text: as §1
# [6] = system: IGROV1; conditions: 10 μM; ovarian cancer cell line IGROV1
# From the text: as §1
# [7] = system: K-562; conditions: 10 μM; leukemia cell line K-562
# From the text: as §1
# [8] = system: KM12; conditions: 10 μM; colorectal cancer cell line KM12
# From the text: as §1
# [9] = system: LOX IMVI; conditions: 10 μM; malignant melanoma cell line LOX IMVI
# From the text: as §1
# [10] = system: M14; conditions: 10 μM; malignant melanoma cell line M14
# From the text: as §1
# [11] = system: MCF-7; conditions: 10 μM; breast cancer cell line MCF-7
# From the text: as §1
# [12] = system: MDA-MB-231; conditions: 10 μM; breast cancer cell line MDA-MB-231
# From the text: as §1
# [13] = system: MOLT-4; conditions: 10 μM; leukemia cell line MOLT-4
# From the text: as §1
# [14] = system: NCI-H226; conditions: 10 μM; non-small cell lung cancer cell line NCI-H226
# From the text: as §1
# [15] = system: NCI-H322M; conditions: 10 μM; non-small cell lung cancer cell line NCI-H322M
# From the text: as §1
# [16] = system: NCI-H460; conditions: 10 μM; non-small cell lung cancer cell line NCI-H460
# From the text: as §1
# [17] = system: NCI-H522; conditions: 10 μM; non-small cell lung cancer cell line NCI-H522
# From the text: as §1
# [18] = system: NCI/ADR/RES; conditions: 10 μM; ovarian cancer cell line NCI/ADR/RES
# From the text: as §1
# [19] = system: OVCAR-4; conditions: 10 μM; ovarian cancer cell line OVCAR-4
# From the text: as §1
# [20] = system: OVCAR-5; conditions: 10 μM; ovarian cancer cell line OVCAR-5
# From the text: as §1
# [21] = system: OVCAR-8; conditions: 10 μM; ovarian cancer cell line OVCAR-8
# From the text: as §1
# [22] = system: RPMI-8226; conditions: 10 μM; leukemia cell line RPMI-8226
# From the text: as §1
# [23] = system: SF-268; conditions: 10 μM; CNS cancer cell line SF-268
# From the text: as §1
# [24] = system: SF-539; conditions: 10 μM; CNS cancer cell line SF-539
# From the text: as §1
# [25] = system: SK-MEL-2; conditions: 10 μM; malignant melanoma cell line SK-MEL-2
# From the text: as §1
# [26] = system: SK-MEL-4; conditions: 10 μM; malignant melanoma cell line SK-MEL-4
# From the text: as §1
# [27] = system: SNB-75; conditions: 10 μM; CNS cancer cell line SNB-75
# From the text: as §1
# [28] = system: TK-10; conditions: 10 μM; renal cell carcinoma cell line TK-10
# From the text: as §1
# [29] = system: U251; conditions: 10 μM; CNS cancer cell line U251
# From the text: as §1
# [30] = system: UACC-257; conditions: 10 μM; malignant melanoma cell line UACC-257
# From the text: as §1
# [31] = system: UACC-62; conditions: 10 μM; malignant melanoma cell line UACC-62
# From the text: as §1
# [32] = system: LDH (Lactate dehydrogenase)
# From the text: Further, we have analyzed the secretion of LDH (Lactate dehydrogenase) enzyme to media as a representative necrosis biomarker.
# [33] = system: MDA-MB-231 triple negative breast cancer cells
# From the text: After implanting MDA-MB-231 triple negative breast cancer cells to the nude mouse, the tumor has been grown to the 200 mm^3 volume. […] The tumor growth has been observed for 27 days.
# The tumor volume and shape in the nude mouse have been observed for 27 days.
# [34] = system: Imatinib-resistant K562 cells; conditions: in vitro and in vivo systems; cited from earlier work
structure (smiles),measurement,setting,value
"O=C1Nc2ccc([N+](=O)[O-])cc2C1=C1Nc2ccc(O)cc2C1=NO [AGM-130, (2′Z 3′E)-5′-hydroxy-5-nitro indirubin oxime]",Growth percent,[1],4.59%
same,Growth percent,[2],0.49%
same,Growth percent,[3],−9.77%
same,Growth percent,[4],−3.09%
same,Growth percent,[5],69.21%
same,Growth percent,[6],6.36%
same,Growth percent,[7],20.90%
same,Growth percent,[8],−32.96%
same,Growth percent,[9],−32.44%
same,Growth percent,[10],11.37%
same,Growth percent,[11],2.75%
same,Growth percent,[12],25.45%
same,Growth percent,[13],2.17%
same,Growth percent,[14],−4.70%
same,Growth percent,[15],7.21%
same,Growth percent,[16],−28.47%
same,Growth percent,[17],−79.07%
same,Growth percent,[18],42.05%
same,Growth percent,[19],19.65%
same,Growth percent,[20],11.33%
same,Growth percent,[21],7.71%
same,Growth percent,[22],−7.92%
same,Growth percent,[23],6.50%
same,Growth percent,[24],−34.15%
same,Growth percent,[25],−55.01%
same,Growth percent,[26],−40.95%
same,Growth percent,[27],−28.05%
same,Growth percent,[28],49.89%
same,Growth percent,[29],0.60%
same,Growth percent,[30],9.29%
same,Growth percent,[31],−34.39%
same,apoptosis and necrosis (LDH secretion),[32],apoptosis and necrosis have been induced at the same time
same,tumor volume reduction compared to control group,[33]; 10 mg/kg intraperitoneally,about 40%
same,"volume of tumor, Mean ± S.E.","[33]; 10 mg/kg intraperitoneally twice a week, day 0",268.0 ± 6.1
same,"volume of tumor, Mean ± S.E.","[33]; 10 mg/kg intraperitoneally twice a week, day 3",369.7 ± 5.0
same,"volume of tumor, Mean ± S.E.","[33]; 10 mg/kg intraperitoneally twice a week, day 6",474.3 ± 6.6
same,"volume of tumor, Mean ± S.E.","[33]; 10 mg/kg intraperitoneally twice a week, day 9",634.9 ± 36.2
same,"volume of tumor, Mean ± S.E.","[33]; 10 mg/kg intraperitoneally twice a week, day 12",813.5 ± 29.0
same,"volume of tumor, Mean ± S.E.","[33]; 10 mg/kg intraperitoneally twice a week, day 15",985.6 ± 44.8
same,"volume of tumor, Mean ± S.E.","[33]; 10 mg/kg intraperitoneally twice a week, day 18",1095.7 ± 54.2
same,"volume of tumor, Mean ± S.E.","[33]; 10 mg/kg intraperitoneally twice a week, day 21",1119.8 ± 57.7
same,"volume of tumor, Mean ± S.E.","[33]; 10 mg/kg intraperitoneally twice a week, day 24",1242.1 ± 76.0
same,"volume of tumor, Mean ± S.E.","[33]; 10 mg/kg intraperitoneally twice a week, day 27",1484.9 ± 86.8
same,tumor volume reduction compared to control group,[33]; 20 mg/kg intraperitoneally,about 64%
same,"volume of tumor, Mean ± S.E.","[33]; 20 mg/kg intraperitoneally twice a week, day 0",248.0 ± 11.0
same,"volume of tumor, Mean ± S.E.","[33]; 20 mg/kg intraperitoneally twice a week, day 3",295.4 ± 22.0
same,"volume of tumor, Mean ± S.E.","[33]; 20 mg/kg intraperitoneally twice a week, day 6",364.9 ± 23.5
same,"volume of tumor, Mean ± S.E.","[33]; 20 mg/kg intraperitoneally twice a week, day 9",457.4 ± 47.3
same,"volume of tumor, Mean ± S.E.","[33]; 20 mg/kg intraperitoneally twice a week, day 12",559.5 ± 56.2
same,"volume of tumor, Mean ± S.E.","[33]; 20 mg/kg intraperitoneally twice a week, day 15",623.4 ± 51.5
same,"volume of tumor, Mean ± S.E.","[33]; 20 mg/kg intraperitoneally twice a week, day 18",668.5 ± 56.8
same,"volume of tumor, Mean ± S.E.","[33]; 20 mg/kg intraperitoneally twice a week, day 21",767.2 ± 106.7
same,"volume of tumor, Mean ± S.E.","[33]; 20 mg/kg intraperitoneally twice a week, day 24",833.1 ± 139.7
same,"volume of tumor, Mean ± S.E.","[33]; 20 mg/kg intraperitoneally twice a week, day 27",894.2 ± 151.6
same,tumor volume reduction compared to control group,[33]; 40 mg/kg intraperitoneally,about 70%
same,"volume of tumor, Mean ± S.E.","[33]; 40 mg/kg intraperitoneally twice a week, day 0",253.1 ± 8.5
same,"volume of tumor, Mean ± S.E.","[33]; 40 mg/kg intraperitoneally twice a week, day 3",313.3 ± 9.7
same,"volume of tumor, Mean ± S.E.","[33]; 40 mg/kg intraperitoneally twice a week, day 6",327.5 ± 19.1
same,"volume of tumor, Mean ± S.E.","[33]; 40 mg/kg intraperitoneally twice a week, day 9",372.4 ± 8.3
same,"volume of tumor, Mean ± S.E.","[33]; 40 mg/kg intraperitoneally twice a week, day 12",444.8 ± 7.3
same,"volume of tumor, Mean ± S.E.","[33]; 40 mg/kg intraperitoneally twice a week, day 15",481.9 ± 39.1
same,"volume of tumor, Mean ± S.E.","[33]; 40 mg/kg intraperitoneally twice a week, day 18",532.7 ± 27.6
same,"volume of tumor, Mean ± S.E.","[33]; 40 mg/kg intraperitoneally twice a week, day 21",620.1 ± 45.2
same,"volume of tumor, Mean ± S.E.","[33]; 40 mg/kg intraperitoneally twice a week, day 24",686.2 ± 85.6
same,"volume of tumor, Mean ± S.E.","[33]; 40 mg/kg intraperitoneally twice a week, day 27",730.8 ± 73.9
same,tumor volume reduction compared to control group,[33]; control group paclitaxel (5 mg/kg),about 14%
same,viability of cells,[34],efficiently decreases the viability
